Measurements from paper PMC4303209, “A novel phosphatidylinositol 3-kinase (PI3K) inhibitor directs a potent FOXO-dependent, p53-independent cell cycle arrest phenotype characterized by the differential induction of a subset of FOXO-regulated genes” (Breast Cancer Research : BCR, 2014).

Tested on: MCF-7 breast cancer cells
Assay: Microarray gene expression analysis (Agilent whole human genome 4 x 44K; compound vs DMSO, LIMMA log2 fold change)
Type: cell-based

## Oc1cccc(-c2nc(N3CCOCC3)c3oc4ncccc4c3n2)c1 [PI-103]
Apoptosis genes, Gene 64919
  BCL11B log2FC: 0.237
Apoptosis genes, Gene 64975
  MRPL41 log2FC: -0.467
Apoptosis genes, Gene 65018
  PINK1 log2FC: 1.918
Apoptosis genes, Gene 65121
  PRAMEF1 log2FC: 0.050
Apoptosis genes, Gene 65122
  PRAMEF2 log2FC: 0.021
Apoptosis genes, Gene 65264
  UBE2Z log2FC: -0.420
Apoptosis genes, Gene 79073
  TMEM109 log2FC: -0.554
Apoptosis genes, Gene 79094
  CHAC1 log2FC: 0.106
Apoptosis genes, Gene 79155
  TNIP2 log2FC: -0.233
Apoptosis genes, Gene 79156
  PLEKHF1 log2FC: -0.466
Apoptosis genes, Gene 79228
  THOC6 log2FC: -0.153
Apoptosis genes, Gene 79370
  BCL2L14 log2FC: -0.153
Apoptosis genes, Gene 79444
  BIRC7 log2FC: -0.015
Apoptosis genes, Gene 79767
  ELMO3 log2FC: -0.530
Apoptosis genes, Gene 79811
  SLTM log2FC: 0.713
Apoptosis genes, Gene 80149
  ZC3H12A log2FC: -1.248
Apoptosis genes, Gene 80196
  RNF34 log2FC: -0.370
Apoptosis genes, Gene 80237
  ELL3 log2FC: 1.045
Apoptosis genes, Gene 80315
  CPEB4 log2FC: 0.553
Apoptosis genes, Gene 80781
  COL18A1 log2FC: 0.023
Apoptosis genes, Gene 81537
  SGPP1 log2FC: -0.248
Apoptosis genes, Gene 81858
  SHARPIN log2FC: -0.118
Apoptosis genes, Gene 83464
  APH1B log2FC: -0.243
Apoptosis genes, Gene 83593
  RASSF5 log2FC: -0.099
Apoptosis genes, Gene 83595
  SOX7 log2FC: -0.149
Apoptosis genes, Gene 83596
  BCL2L12 log2FC: -0.182
Apoptosis genes, Gene 83737
  ITCH log2FC: 0.449
Apoptosis genes, Gene 83879
  CDCA7 log2FC: -0.061
Apoptosis genes, Gene 83940
  TATDN1 log2FC: 0.554
Apoptosis genes, Gene 83941
  TM2D1 log2FC: 0.055
Apoptosis genes, Gene 84033
  OBSCN log2FC: 0.392
Apoptosis genes, Gene 84231
  TRAF7 log2FC: -0.080
Apoptosis genes, Gene 84236
  RHBDD1 log2FC: -0.425
Apoptosis genes, Gene 84260
  TCHP log2FC: 0.283
Apoptosis genes, Gene 84287
  ZDHHC16 log2FC: -0.316
Apoptosis genes, Gene 84289
  ING5 log2FC: -0.961
Apoptosis genes, Gene 84335
  AKT1S1 log2FC: -0.610
Apoptosis genes, Gene 84433
  CARD11 log2FC: 0.185
Apoptosis genes, Gene 84447
  SYVN1 log2FC: 0.495
Apoptosis genes, Gene 84524
  ZC3H8 log2FC: 1.375
Apoptosis genes, Gene 84624
  FNDC1 log2FC: -0.079
Apoptosis genes, Gene 84674
  CARD6 log2FC: 0.035
Apoptosis genes, Gene 84681
  HINT2 log2FC: 0.122
Apoptosis genes, Gene 84707
  BEX2 log2FC: 0.833
Apoptosis genes, Gene 84951
  TNS4 log2FC: -1.157
Apoptosis genes, Gene 84971
  ATG4D log2FC: -0.288
Apoptosis genes, Gene 85508
  SCRT2 log2FC: -0.600
Apoptosis genes, Gene 89780
  WNT3A log2FC: -0.352
Apoptosis genes, Gene 89846
  FGD3 log2FC: 0.895
Apoptosis genes, Gene 90249
  UNC5A log2FC: -0.397
Apoptosis genes, Gene 90427
  BMF log2FC: 2.201
Apoptosis genes, Gene 92140
  MTDH log2FC: 0.308
Apoptosis genes, Gene 92609
  TIMM50 log2FC: -0.337
Apoptosis genes, Gene 94241
  TP53INP1 log2FC: 0.890
Apoptosis genes, Gene 112398
  EGLN2 log2FC: 0.419
Apoptosis genes, Gene 112399
  EGLN3 log2FC: -0.441
Apoptosis genes, Gene 114824
  PNMA5 log2FC: 0.611
Apoptosis genes, Gene 115584
  SLC5A11 log2FC: 0.170
Apoptosis genes, Gene 117581
  TWIST2 log2FC: -0.613
Apoptosis genes, Gene 117584
  RFFL log2FC: -0.445
Apoptosis genes, Gene 121512
  FGD4 log2FC: 0.646
Apoptosis genes, Gene 122042
  RXFP2 log2FC: -0.012
Apoptosis genes, Gene 123879
  DCUN1D3 log2FC: -0.855
Apoptosis genes, Gene 130399
  ACVR1C log2FC: 0.413
Apoptosis genes, Gene 133396
  IL31RA log2FC: 0.067
Apoptosis genes, Gene 133746
  JMY log2FC: 1.008
Apoptosis genes, Gene 137970
  UNC5D log2FC: 0.036
Apoptosis genes, Gene 140735
  DYNLL2 log2FC: -0.654
Apoptosis genes, Gene 143471
  PSMA8 log2FC: 0.074
Apoptosis genes, Gene 148022
  TICAM1 log2FC: -0.334
Apoptosis genes, Gene 149428
  BNIPL log2FC: -0.016
Apoptosis genes, Gene 151112
  ZSWIM2 log2FC: -0.00651
Apoptosis genes, Gene 153090
  DAB2IP log2FC: 0.029
Apoptosis genes, Gene 160728
  SLC5A8 log2FC: -0.019
Apoptosis genes, Gene 171558
  PTCRA log2FC: -0.229
Apoptosis genes, Gene 192286
  HIGD2A log2FC: -0.188
Apoptosis genes, Gene 201163
  FLCN log2FC: 0.778
Apoptosis genes, Gene 204851
  HIPK1 log2FC: -0.082
Apoptosis genes, Gene 219699
  UNC5B log2FC: -0.706
Apoptosis genes, Gene 220441
  RNF152 log2FC: -0.049
Apoptosis genes, Gene 221472
  FGD2 log2FC: -0.083
Apoptosis genes, Gene 255027
  MPV17L log2FC: -0.431
Apoptosis genes, Gene 259230
  TMEM23 log2FC: 0.281
Apoptosis genes, Gene 260425
  MAGI3 log2FC: 0.313
Apoptosis genes, Gene 282991
  BLOC1S2 log2FC: 0.288
Apoptosis genes, Gene 340371
  NRBP2 log2FC: -0.00243
Apoptosis genes, Gene 342977
  NANOS3 log2FC: 0.015
Apoptosis genes, Gene 347902
  AMIGO2 log2FC: 0.458
Apoptosis genes, Gene 387263
  C6orf120 log2FC: -0.573
Apoptosis genes, Gene 392255
  GDF6 log2FC: -0.024
Apoptosis genes, Gene 399687
  MYO18A log2FC: -0.274
Apoptosis genes, Gene 401940
  PRAMEF3 log2FC: -0.384
Apoptosis genes, Gene 414149
  ADIPOQ log2FC: -0.263
Apoptosis genes, Gene 415116
  PIM3 log2FC: 0.644
Apoptosis genes, Gene 653499
  LGALS7 log2FC: -0.246
Apoptosis genes, Gene 728489
  CARD9 log2FC: -0.430
Apoptosis genes, Gene 728613
  PDCD6 log2FC: -0.273
Apoptosis genes, Gene 730092
  RRN3 log2FC: 0.522
Apoptosis genes, Gene 100133941
  CD24 log2FC: 0.117
Gene 90, cell cycle genes
  ACVR1 log2FC: 0.55
Gene 91, cell cycle genes
  ACVR1B log2FC: -0.21
Gene 116, cell cycle genes
  ADCYAP1 log2FC: 0.0422
Gene 196, cell cycle genes
  AHR log2FC: 0.78
Gene 199, cell cycle genes
  AIF1 log2FC: -0.0247
Gene 203, cell cycle genes
  AK1 log2FC: -0.25
Gene 207, cell cycle genes
  AKT1 log2FC: -0.58
Gene 208, cell cycle genes
  AKT2 log2FC: -0.41
Gene 247, cell cycle genes
  ALOX15B log2FC: -0.00234
Gene 288, cell cycle genes
  ANK3 log2FC: 0.62
Gene 301, cell cycle genes
  ANXA1 log2FC: 0.80
Gene 311, cell cycle genes
  ANXA11 log2FC: -0.16
Gene 322, cell cycle genes
  APBB1 log2FC: 0.36
Gene 323, cell cycle genes
  APBB2 log2FC: -0.18
Gene 328, cell cycle genes
  APEX1 log2FC: 0.12
Gene 329, cell cycle genes
  BIRC2 log2FC: -0.34
Gene 351, cell cycle genes
  APP log2FC: 0.33
Gene 382, cell cycle genes
  ARF6 log2FC: -0.57
Gene 388, cell cycle genes
  RHOB log2FC: -0.10
Gene 389, cell cycle genes
  RHOC log2FC: -0.37
Gene 402, cell cycle genes
  ARL2 log2FC: 0.09
Gene 403, cell cycle genes
  ARL3 log2FC: 0.06
Gene 440, cell cycle genes
  ASNS log2FC: -0.39
Gene 571, cell cycle genes
  BACH1 log2FC: 0.78
Gene 580, cell cycle genes
  BARD1 log2FC: 0.34
Gene 585, cell cycle genes
  BBS4 log2FC: 0.84
Gene 595, cell cycle genes
  CCND1 log2FC: -1.53
Gene 596, cell cycle genes
  BCL2 log2FC: -0.34
Gene 598, cell cycle genes
  BCL2L1 log2FC: -0.92
Gene 613, cell cycle genes
  BCR log2FC: -0.81
Gene 637, cell cycle genes
  BID log2FC: -0.26
Gene 650, cell cycle genes
  BMP2 log2FC: -0.23
Gene 655, cell cycle genes
  BMP7 log2FC: -0.32
Gene 667, cell cycle genes
  DST log2FC: 0.55
Gene 672, cell cycle genes
  BRCA1 log2FC: 0.74
Gene 676, cell cycle genes
  BRDT log2FC: -0.0232
Gene 699, cell cycle genes
  BUB1 log2FC: 0.59
Gene 801, cell cycle genes
  CALM1 log2FC: 0.07
Gene 811, cell cycle genes
  CALR log2FC: -0.16
Gene 815, cell cycle genes
  CAMK2A log2FC: 0.03
Gene 817, cell cycle genes
  CAMK2D log2FC: 0.78
Gene 818, cell cycle genes
  CAMK2G log2FC: 0.66
Gene 835, cell cycle genes
  CASP2 log2FC: -0.76
Gene 858, cell cycle genes
  CAV2 log2FC: 0.93
Gene 864, cell cycle genes
  RUNX3 log2FC: -0.36
Gene 890, cell cycle genes
  CCNA2 log2FC: -0.08
Gene 891, cell cycle genes
  CCNB1 log2FC: -0.13
Gene 892, cell cycle genes
  CCNC log2FC: -0.10
Gene 894, cell cycle genes
  CCND2 log2FC: -1.30
Gene 896, cell cycle genes
  CCND3 log2FC: -0.73
Gene 898, cell cycle genes
  CCNE1 log2FC: -0.63
Gene 900, cell cycle genes
  CCNG1 log2FC: 0.46
Gene 901, cell cycle genes
  CCNG2 log2FC: 3.91
Gene 940, cell cycle genes
  CD28 log2FC: 0.0361
Gene 988, cell cycle genes
  CDC5L log2FC: 0.88
Gene 990, cell cycle genes
  CDC6 log2FC: -0.98
Gene 991, cell cycle genes
  CDC20 log2FC: -0.31
Gene 993, cell cycle genes
  CDC25A log2FC: -2.03
